Laboratory results as given in US20230123334A1, “AMINO LIPID COMPOUND, PREPARATION METHOD THEREFOR, AND APPLICATION THEREOF” (SHENZHEN SHENXIN BIOTECHNOLOGY CO., LTD., priority 2020, published 2023).

System: HEK293 cells
Test: Preliminary screening as DNA vectors, GFP transfection of HEK293 cells
Assay type: cell-based
Details: amino lipid/DOPE liposome with 75 ng plasmid DNA (psin-EGFP-IRES-Puro); number of GFP-expressing cells divided by total nuclei (Hoechst)
Method: Cell line: HEK293 cells (ATCC CRL-1573™)
Medium: DMEM supplemented with 10% fetal bovine serum (Invitrogen)
Mode of screening: cell transfection on 96-well plates
Detection (readout): percentage of the number of GFP fluorescent cells relative to the total number of cells (the total number of cells was measured using nucleus dye Hoechst—see FIG. 2). Lipofectamine2000 (Invitrogen) was used as positive control, according to the manufacturer's instructions.
Method: an 8-channel pipette was used for sample addition. The contents shown were for a single well of a 96-well flat plate.
1. The compound (0.01 mmol) prepared in Example 1 was dissolved in 1 mL of anhydrous ethanol. After ultrasonically dissolved, 10 μL of the resultant amino lipid solution in ethanol was taken and mixed with 5 μL of DOPE solution in ethanol (0.01 m), and then to the obtained mixture was added 35 μL of 0.2M sodium acetate buffer (pH 5.6), and 50 μL of liposome solution was prepared by vortex at a constant rotating speed for 30 s. 4 μL was taken from the 50 μL liposome solution and added to 46 μL of 0.02M sodium acetate buffer (pH 5.6), and the final liposome solution was formed by vortex at a constant rotating speed for 30 s. 5 μL was taken from the final liposome solution and mixed with 75 ng plasmid DNA (psin-EGFP-IRES-Puro, Clontech) dissolved in 5 μL of 0.02 M sodium acetate buffer, and was allowed to stay at room temperature for 30 min to form a lipid/DNA transfection complex.
2. 10 μL of the lipid/DNA transfection complex was incubated at room temperature for 30 min, followed by addition of 90 μL of fresh resuspended cells (3-5×10^4 cells) and mixing with a pipette. 100 μL of cells+lipid/DNA complex was transferred to separate wells of a 96-well culture plate immediately, and placed in an incubator containing 5% CO2 at 37° C.
3. Hoechst33258 (Invitrogen) was added at a final concentration of 0.2 μg/mL to the cells 20 to 24 hours after initial cell transfection, and cultured in darkness at 37° C. for 15 min. Afterwards, the cells were washed once with a PBS solution, and then added with medium for culture for 20 to 24 h.
4. The cells were placed in a high-throughput confocal microscope (Molecular Devices ImageXpress), and four visual fields of the image of the cells were captured for each well, and images at three laser wavelengths were captured for each sample: bright field images of cells (FIG. 2(a) and FIG. 2(b)), Hoechst-staining images showing total nuclei (FIG. 2(c) and FIG. 2(d)) and GFP images showing success in transfection with the plasmid DNA and the expression of GFP (FIG. 2(e) and FIG. 2(f)). MetaXpress software was used to separately count the cells in the Hoechst-staining images and GFP images, and then the number of cells expressing GFP was divided by the total number of nuclei to give the absolute cell transfection efficiency. The absolute transfection efficiency was calculated as follows: […]

SMILES | Absolute DNA transfection efficiency in HEK293 cells
CCCCCCCCCNc1nc(NCCN(C)C)nc(SCCCCCCCCC)n1 [S9N9 D1] | 35.3%
CCCCCCCCCCCCCCCNc1nc(NCCCN2CCOCC2)nc(SCCCCCC)n1 [S6N15 D8] | 3.3%
CCCCCCCCCCCCCCSc1nc(NCCCCCC)nc(NCCCN2CCOCC2)n1 [S14N6 D8] | 13.6%
CCCCCCCCCCSc1nc(NCCN(C)C)nc(SCCCCCC)n1 [S6S10 D1] | 3.2%
CCCCCCCCCCSc1nc(NCCN(CC)CC)nc(SCCCCCCCC)n1 [S8S10 D7] | 11.4%
CCCCCCCCCCCCCCCCCCNc1nc(NCC2CCN(C)CC2)nc(SCCCCCCCCCCCCCC)n1 [S14N18 D10] | 0.1%
CCCCCCCCCCCCCCCCCCSc1nc(NCCCCCCCCCCCCCCCC)nc(NCCN(CC)CC)n1 [S18N16 D7] | 0.0%
CCCCCCCCCCCNc1nc(NCCN2CCOCC2)nc(SCCCCCCCCC)n1 [S9N11 D2] | 16.2%
CCCCCCCCCCCCCCCCNc1nc(NCC2CCN(C)CC2)nc(SCCCCCCCCCCCCCC)n1 [S14N16 D10] | 0.7%
CCCCCCCCCCCSc1nc(NCCCCCC)nc(NCC2CCN(C)CC2)n1 [S11N6 D10] | 8.8%
CCCCCCCCCCCCCCCCSc1nc(NCCCCCCCCCCC)nc(NCCN2CCCCC2)n1 [S16N11 D4] | 5.8%
CCCCCCCCCCCCNc1nc(NCCN2CCCC2)nc(SCCCCCCCCCC)n1 [S10N12 D3] | 7.2%
CCCCCCCCCCCCCCCCCCSc1nc(NCCCN2CCOCC2)nc(SCCCCCCC)n1 [S7S18 D8] | 16.1%
CCCCCCCCCCCCCCCSc1nc(NCCCCCCC)nc(NCCN2CCCC2)n1 [S15N7 D3] | 19.7%
CCCCCCCCCCCCN(CCCCCCCCCCCC)c1nc(NCCN2CCCC2)nc(SCCCCCCCCC)n1 [S9^2N12 D3] | 0.0%
CCCCCCCCCCCCCCCCCCSc1nc(NCCN2CCCCC2)nc(SCCCCCC)n1 [S6S18 D4] | 10.4%
CCCCCCCCCCCCCCCSc1nc(NCCCCCCCCC)nc(NCC2CCN(C)CC2)n1 [S15N9 D10] | 35.1%
CCCCCCCCCCCCCCCCNc1nc(NCCN(C)C)nc(SCCCCCCCCC)n1 [S9N16 D1] | 19.2%
CCCCCCCCCCCCCCCCCCSc1nc(NCCCCCCCCCCCC)nc(NCCN(C)C)n1 [S18N12 D1] | 1.3%
CCCCCCCCCCCCCCCCSc1nc(NCCCCCC)nc(NCCCN2CCN(C)CC2)n1 [S16N6 D9] | 9.6%

SMILES | Absolute DNA transfection efficiency in HEK293 cells
CCCCCCCCCSc1nc(NCCCCCCCC)nc(NCCN2CCCCC2)n1 [S9N8 D4] | 27.3%
CCCCCCCCCCCCCCCCSc1nc(NCCCCCCCCCCCCCCC)nc(NCCN2CCN(C)CC2)n1 [S16N15 D5] | 0.3%
CCCCCCCCCCCCCCCCCCSc1nc(NCCCCCCCCCCCCCCCC)nc(NCCN2CCCCC2)n1 [S18N16 D4] | 0.1%
CCCCCCCCSc1nc(NCC2CCN(C)CC2)nc(SCCCCCCCC)n1 [S8S8 D10] | 27.9%
CCCCCCCCCCCCCCCCCCSc1nc(NCCN2CCCC2)nc(SCCCCCC)n1 [S6S18 D3] | 13.8%
CCCCCCCCCCCCCCCCCCSc1nc(NCCCCCCCCCCC)nc(NCCCN(C)C)n1 [S18N11 D6] | 5.2%
CCCCCCCCCCCCSc1nc(NCCCCCCCCCCC)nc(NCCN2CCCC2)n1 [S12N11 D3] | 30.3%
CCCCCCCCCCCCCCCCSc1nc(NCCN2CCOCC2)nc(SCCCCCC)n1 [S6S16 D2] | 24.0%
CCCCCCCCCCCCSc1nc(NCCCCCCCCCCC)nc(NCCN(CC)CC)n1 [S12N11 D7] | 5.8%
CCCCCCCCCCCCCCCCNc1nc(NCC2CCN(C)CC2)nc(SCCCCCCC)n1 [S7N16 D10] | 15.8%
CCCCCCCCCCCCCCCSc1nc(NCCCCCCCCCCCC)nc(NCCN2CCCC2)n1 [S15N12 D3] | 11.5%
CCCCCCCCCCCCCCCCSc1nc(NCCN(C)C)nc(N(CCCCCCCCCCCC)CCCCCCCCCCCC)n1 [S16^2N12 D1] | 0.0%
CCCCCCCCCCSc1nc(NCCCCCC)nc(NCCCN2CCN(C)CC2)n1 [S10N6 D9] | 5.5%
CCCCCCCCCCCSc1nc(NCCCN(C)C)nc(SCCCCCC)n1 [S6S11 D6] | 32.1%
CCCCCCSc1nc(NCCN2CCCC2)nc(SCCCCCC)n1 [S6S6 D3] | 4.4%
CCCCCCCCCCCCCCCCCCNc1nc(NCCN2CCCC2)nc(SCCCCCCCCCCCCCCCC)n1 [S16N18 D3] | 0.6%
CCCCCCCCCCCCCCCNc1nc(NCCN2CCCCC2)nc(SCCCCCCCCC)n1 [S9N15 D4] | 4.2%
CCCCCCCCCCCCCCCCCCNc1nc(NCCCN(C)C)nc(SCCCCCCCC)n1 [S8N18 D6] | 20.6%
CCCCCCCCCCCCCCCNc1nc(NCCCN2CCOCC2)nc(SCCCCCCCCCCCCCCC)n1 [S15N15 D8] | 0.1%
CCCCCCCCCCCCCCCCNc1nc(NCCN2CCOCC2)nc(SCCCCCCCCCC)n1 [S10N16 D2] | 1.2%

SMILES | Absolute DNA transfection efficiency in HEK293 cells
CCCCCCCCCCCCN(CCCCCCCCCCCC)c1nc(NCCN2CCN(C)CC2)nc(SCCCCCC)n1 [S6^2N12 D5] | 0.0%
CCCCCCCCCCCCN(CCCCCCCCCCCC)c1nc(NCCN2CCCC2)nc(SCCCCCCCCCC)n1 [S10^2N12 D3] | 1.1%
CCCCCCCSc1nc(NCCCCCC)nc(NCCCN2CCN(C)CC2)n1 [S7N6 D9] | 20.3%
CCCCCCCCCCSc1nc(NCCN2CCCCC2)nc(SCCCCCCCC)n1 [S8S10 D4] | 8.3%
CCCCCCCCCCCCCCCCCCNc1nc(NCCCN(C)C)nc(SCCCCCC)n1 [S6N18 D6] | 21.8%
CCCCCCCCCCCCCCCCCCSc1nc(NCCCCCCCCCCCCCCC)nc(NCCN(CC)CC)n1 [S18N15 D7] | 0.1%
CCCCCCCCCCCCN(CCCCCCCCCCCC)c1nc(NCCCN(C)C)nc(SCCCCCC)n1 [S6^2N12 D6] | 0.2%
CCCCCCCCCCCCCCCCNc1nc(NCCCN2CCOCC2)nc(SCCCCCCCCCCCCCC)n1 [S14N16 D8] | 0.1%
CCCCCCCCCCCCCCCNc1nc(NCCCN(C)C)nc(SCCCCCC)n1 [S6N15 D6] | 25.9%
CCCCCCCCCCCCCNc1nc(NCCN(CC)CC)nc(SCCCCCC)n1 [S6N13 D7] | 2.0%
CCCCCCCCCCCCCCCCNc1nc(NCCN2CCCCC2)nc(SCCCCCCCCCC)n1 [S10N16 D4] | 4.4%
CCCCCCCCCCCCSc1nc(NCCCCCC)nc(NCCCN(C)C)n1 [S12N6 D6] | 1.1%
CCCCCCCCCCCCCNc1nc(NCCN(C)C)nc(SCCCCCCCC)n1 [S8N13 D1] | 18.3%
CCCCCCCCCCCNc1nc(NCCN2CCN(C)CC2)nc(SCCCCCCCC)n1 [S8N11 D5] | 52.7%
CCCCCCCSc1nc(NCCN(C)C)nc(SCCCCCC)n1 [S6S7 D1] | 0.5%
CCCCCCCCCCCCCCCCCCSc1nc(NCCN2CCN(C)CC2)nc(SCCCCCCC)n1 [S7S18 D5] | 14.2%
CCCCCCCCCCCCCCCNc1nc(NCCN(CC)CC)nc(SCCCCCC)n1 [S6N15 D7] | 1.2%
CCCCCCCCCCCCCCCCSc1nc(NCCCCCCC)nc(NCCN(CC)CC)n1 [S16N7 D7] | 7.3%
CCCCCCCCCCCCCCCCNc1nc(NCCCN(C)C)nc(SCCCCCCCCC)n1 [S9N16 D6] | 29.7%
